# Patent US20230085307A1, “PYRIDAZINONE COMPOUND AND HERBICIDE” (NISSAN CHEMICAL CORPORATION, priority 2019, published 2023)
# Experiments:
# barnyard grass [1] = assay: Test Example 5: herbicidal effect by foliage application, plastic box (Table 20, symbol H); format: in vivo, barnyard grass (Echinochloa crus-galli); details: evaluated three weeks after application
# How it was run: (§1)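 Sow seeds spot-wise in sterilized diluvial soil; cover with ~1.5 cm soil. Grow 14 days in greenhouse, 25° C. to 30° C. Spray foliage with emulsion diluted to predetermined amount. Rate effect after 3 weeks.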
# chickweed [2] = assay: Test Example 5: herbicidal effect by foliage application, plastic box (Table 20, symbol P); format: in vivo, common chickweed (Stellaria media); details: evaluated three weeks after application
# How it was run: as §1
# wild oat [3] = assay: Test Example 5: herbicidal effect by foliage application, plastic box (Table 20, symbol I); format: in vivo, wild oat (Avena fatua); details: evaluated three weeks after application
# How it was run: as §1
# southern crabgrass [4] = assay: Test Example 4: herbicidal effect by soil treatment (Table 19, symbol F); format: in vivo, southern crabgrass (Digitaria ciliaris)
# How it was run: (§2)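 Applied as a water-diluted emulsion, the compound was sprayed onto soil covering newly sown seeds. Evaluation came three weeks after application, in a greenhouse held at 25° C. to 30° C.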
# wild oat [5] = assay: Test Example 4: herbicidal effect by soil treatment (Table 19, symbol I); format: in vivo, wild oat (Avena fatua)
# How it was run: as §2
# rice flat sedge = assay: Test Example 3: herbicidal effect by foliage application, Wagner pot (Table 18, symbol E); format: in vivo, rice flat sedge (Cyperus iria); details: 320 g/ha
# How it was run: (§3)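 Plants were sown in alluvial soil held under 0.1–0.5 cm standing water and grown 14 days in a greenhouse at 25–30 °C. An emulsifiable formulation, water-diluted to the set dose, was then sprayed onto the foliage, and effects were scored three weeks later using previously defined criteria.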
# lambsquarters [6] = assay: Test Example 4: herbicidal effect by soil treatment (Table 19, symbol O); format: in vivo, lambsquarters (Chenopodium album)
# How it was run: as §2
# velvetleaf [7] = assay: Test Example 4: herbicidal effect by soil treatment (Table 19, symbol M); format: in vivo, velvetleaf (Abutilon theophrasti)
# How it was run: as §2
# blackgrass [8] = assay: Test Example 5: herbicidal effect by foliage application, plastic box (Table 20, symbol J); format: in vivo, blackgrass (Alopecurus myosuroides); details: evaluated three weeks after application
# How it was run: as §1
# barnyard grass [9] = assay: Test Example 4: herbicidal effect by soil treatment (Table 19, symbol H); format: in vivo, barnyard grass (Echinochloa crus-galli)
# How it was run: as §2
# windgrass [10] = assay: Test Example 5: herbicidal effect by foliage application, plastic box (Table 20, symbol L); format: in vivo, windgrass (Apera spica-venti); details: evaluated three weeks after application
# How it was run: as §1
# green foxtail [11] = assay: Test Example 4: herbicidal effect by soil treatment (Table 19, symbol G); format: in vivo, green foxtail (Setaria viridis)
# How it was run: as §2
# redroot pigweed [12] = assay: Test Example 5: herbicidal effect by foliage application, plastic box (Table 20, symbol N); format: in vivo, redroot pigweed (Amaranthus retroflexus); details: evaluated three weeks after application
# How it was run: as §1
# blackgrass [13] = assay: Test Example 4: herbicidal effect by soil treatment (Table 19, symbol J); format: in vivo, blackgrass (Alopecurus myosuroides)
# How it was run: as §2
# persian speedwell [14] = assay: Test Example 4: herbicidal effect by soil treatment (Table 19, symbol R); format: in vivo, Persian speedwell (Veronica persica)
# How it was run: as §2
# green foxtail [15] = assay: Test Example 5: herbicidal effect by foliage application, plastic box (Table 20, symbol G); format: in vivo, green foxtail (Setaria viridis); details: evaluated three weeks after application
# How it was run: as §1
# Italian ryegrass [16] = assay: Test Example 4: herbicidal effect by soil treatment (Table 19, symbol K); format: in vivo, Italian ryegrass (Lolium multiflorum)
# How it was run: as §2
# Chinese sprangletop = assay: Test Example 3: herbicidal effect by foliage application, Wagner pot (Table 18, symbol D); format: in vivo, chinese sprangletop (Leptochloa chinensis); details: 320 g/ha
# How it was run: as §3
# persian speedwell [17] = assay: Test Example 5: herbicidal effect by foliage application, plastic box (Table 20, symbol R); format: in vivo, Persian speedwell (Veronica persica); details: evaluated three weeks after application
# How it was run: as §1
# false cleavers = assay: Test Example 5: herbicidal effect by foliage application, plastic box (Table 20, symbol Q); format: in vivo, false cleavers (Galium spurium); details: evaluated three weeks after application
# How it was run: as §1
# barnyard grass [18] = assay: Test Example 3: herbicidal effect by foliage application, Wagner pot (Table 18, symbol H); format: in vivo, barnyard grass (Echinochloa crus-galli); details: 320 g/ha
# How it was run: as §3
# redroot pigweed [19] = assay: Test Example 4: herbicidal effect by soil treatment (Table 19, symbol N); format: in vivo, redroot pigweed (Amaranthus retroflexus)
# How it was run: as §2
# Italian ryegrass [20] = assay: Test Example 5: herbicidal effect by foliage application, plastic box (Table 20, symbol K); format: in vivo, Italian ryegrass (Lolium multiflorum); details: evaluated three weeks after application
# How it was run: as §1
# windgrass [21] = assay: Test Example 4: herbicidal effect by soil treatment (Table 19, symbol L); format: in vivo, windgrass (Apera spica-venti)
# How it was run: as §2
# chickweed [22] = assay: Test Example 4: herbicidal effect by soil treatment (Table 19, symbol P); format: in vivo, common chickweed (Stellaria media)
# How it was run: as §2
# lambsquarters [23] = assay: Test Example 5: herbicidal effect by foliage application, plastic box (Table 20, symbol O); format: in vivo, lambsquarters (Chenopodium album); details: evaluated three weeks after application
# How it was run: as §1
# velvetleaf [24] = assay: Test Example 5: herbicidal effect by foliage application, plastic box (Table 20, symbol M); format: in vivo, velvetleaf (Abutilon theophrasti); details: evaluated three weeks after application
# How it was run: as §1
# southern crabgrass [25] = assay: Test Example 5: herbicidal effect by foliage application, plastic box (Table 20, symbol F); format: in vivo, southern crabgrass (Digitaria ciliaris); details: evaluated three weeks after application
# How it was run: as §1
# [26] = amount of applied herbicide 320 g/ha, foliage application after 14-day growth
# [27] = amount of applied herbicide 320 g/ha
compound,measurement,setting,value
Cc1nn(C)c(=O)c(-c2c(-c3ccc4c(c3)OCO4)sc3ccc(F)cc23)c1O [2-090],herbicidal effect on H: barnyard grass,"barnyard grass [1]; foliage application, 320 g/ha",5 (Herbicidal rate of 90% or more (almost completely withered))
same,herbicidal effect on P: chickweed,"chickweed [2]; foliage application, 320 g/ha",5 (Herbicidal rate of 90% or more (almost completely withered))
same,herbicidal effect on I: wild oat,"wild oat [3]; foliage application, 320 g/ha",3 (Herbicidal rate of 40% or more and less than 70%)
same,"herbicidal effect rating, F: southern crabgrass",southern crabgrass [4]; 320 g/ha,2 (Herbicidal rate of 20% or more and less than 40%)
same,"herbicidal effect rating, I: wild oat",wild oat [5]; 320 g/ha,0 (Herbicidal rate of 5% or less (almost no effect))
same,"herbicidal effect on E (rice flat sedge), rating 0-5",rice flat sedge,5 (Herbicidal rate of 90% or more (almost completely withered))
same,"herbicidal effect rating, O: lambsquarters",lambsquarters [6]; 320 g/ha,5 (Herbicidal rate of 90% or more (almost completely withered))
same,"herbicidal effect rating, M: velvetleaf",velvetleaf [7]; 320 g/ha,5 (Herbicidal rate of 90% or more (almost completely withered))
same,herbicidal effect on J: blackgrass,"blackgrass [8]; foliage application, 320 g/ha",4 (Herbicidal rate of 70% or more and less than 90%)
same,"herbicidal effect rating, H: barnyard grass",barnyard grass [9]; 320 g/ha,2 (Herbicidal rate of 20% or more and less than 40%)
same,herbicidal effect on L: windgrass,"windgrass [10]; foliage application, 320 g/ha",5 (Herbicidal rate of 90% or more (almost completely withered))
same,"herbicidal effect rating, G: green foxtail",green foxtail [11]; 320 g/ha,3 (Herbicidal rate of 40% or more and less than 70%)
same,herbicidal effect on N: redroot pigweed,"redroot pigweed [12]; foliage application, 320 g/ha",5 (Herbicidal rate of 90% or more (almost completely withered))
same,"herbicidal effect rating, J: blackgrass",blackgrass [13]; 320 g/ha,2 (Herbicidal rate of 20% or more and less than 40%)
same,"herbicidal effect rating, R: persian speedwell",persian speedwell [14]; 320 g/ha,5 (Herbicidal rate of 90% or more (almost completely withered))
same,herbicidal effect on G: green foxtail,"green foxtail [15]; foliage application, 320 g/ha",5 (Herbicidal rate of 90% or more (almost completely withered))
same,"herbicidal effect rating, K: Italian ryegrass",Italian ryegrass [16]; 320 g/ha,4 (Herbicidal rate of 70% or more and less than 90%)
same,"herbicidal effect on D (Chinese sprangletop), rating 0-5",Chinese sprangletop,2 (Herbicidal rate of 20% or more and less than 40%)
same,herbicidal effect on R: persian speedwell,"persian speedwell [17]; foliage application, 320 g/ha",5 (Herbicidal rate of 90% or more (almost completely withered))
same,herbicidal effect on Q: false cleavers,"false cleavers; foliage application, 320 g/ha",4 (Herbicidal rate of 70% or more and less than 90%)
same,"herbicidal effect on H (barnyard grass), rating 0-5",barnyard grass [18],5 (Herbicidal rate of 90% or more (almost completely withered))
same,"herbicidal effect rating, N: redroot pigweed",redroot pigweed [19]; 320 g/ha,5 (Herbicidal rate of 90% or more (almost completely withered))
same,herbicidal effect on K: Italian ryegrass,"Italian ryegrass [20]; foliage application, 320 g/ha",5 (Herbicidal rate of 90% or more (almost completely withered))
same,"herbicidal effect rating, L: windgrass",windgrass [21]; 320 g/ha,0 (Herbicidal rate of 5% or less (almost no effect))
same,"herbicidal effect rating, P: chickweed",chickweed [22]; 320 g/ha,4 (Herbicidal rate of 70% or more and less than 90%)
same,herbicidal effect on O: lambsquarters,"lambsquarters [23]; foliage application, 320 g/ha",5 (Herbicidal rate of 90% or more (almost completely withered))
same,herbicidal effect on M: velvetleaf,"velvetleaf [24]; foliage application, 320 g/ha",5 (Herbicidal rate of 90% or more (almost completely withered))
same,herbicidal effect on F: southern crabgrass,"southern crabgrass [25]; foliage application, 320 g/ha",4 (Herbicidal rate of 70% or more and less than 90%)
CCCC(=O)Oc1c(C)nn(C)c(=O)c1-c1c(-c2ccc(F)cc2)sc2cc(F)c(F)cc12 [5-002],"Herbicidal effect by foliage application, H: barnyard grass",barnyard grass [1]; [26],4 (Herbicidal rate of 70% or more and less than 90%)
same,"Herbicidal effect by foliage application, P: chickweed",chickweed [2]; [26],5 (Herbicidal rate of 90% or more (almost completely withered))
same,"Herbicidal effect by foliage application, I: wild oat",wild oat [3]; [26],4 (Herbicidal rate of 70% or more and less than 90%)
same,"F: southern crabgrass, herbicidal effect grade",southern crabgrass [4]; [27],0 (Herbicidal rate of 5% or less (almost no effect))
same,"I: wild oat, herbicidal effect grade",wild oat [5]; [27],3 (Herbicidal rate of 40% or more and less than 70%)
same,herbicidal effect on rice flat sedge (E),rice flat sedge,0 (Herbicidal rate of 5% or less (almost no effect))
same,"O: lambsquarters, herbicidal effect grade",lambsquarters [6]; [27],5 (Herbicidal rate of 90% or more (almost completely withered))
same,"M: velvetleaf, herbicidal effect grade",velvetleaf [7]; [27],3 (Herbicidal rate of 40% or more and less than 70%)
same,"Herbicidal effect by foliage application, J: blackgrass",blackgrass [8]; [26],4 (Herbicidal rate of 70% or more and less than 90%)
same,"H: barnyard grass, herbicidal effect grade",barnyard grass [9]; [27],3 (Herbicidal rate of 40% or more and less than 70%)
same,"Herbicidal effect by foliage application, L: windgrass",windgrass [10]; [26],5 (Herbicidal rate of 90% or more (almost completely withered))
same,"G: green foxtail, herbicidal effect grade",green foxtail [11]; [27],4 (Herbicidal rate of 70% or more and less than 90%)
same,"Herbicidal effect by foliage application, N: redroot pigweed",redroot pigweed [12]; [26],5 (Herbicidal rate of 90% or more (almost completely withered))
same,"J: blackgrass, herbicidal effect grade",blackgrass [13]; [27],2 (Herbicidal rate of 20% or more and less than 40%)
same,"R: persian speedwell, herbicidal effect grade",persian speedwell [14]; [27],5 (Herbicidal rate of 90% or more (almost completely withered))
same,"Herbicidal effect by foliage application, G: green foxtail",green foxtail [15]; [26],5 (Herbicidal rate of 90% or more (almost completely withered))
same,"K: Italian ryegrass, herbicidal effect grade",Italian ryegrass [16]; [27],5 (Herbicidal rate of 90% or more (almost completely withered))
same,herbicidal effect on Chinese sprangletop (D),Chinese sprangletop,3 (Herbicidal rate of 40% or more and less than 70%)
same,"Herbicidal effect by foliage application, R: persian speedwell",persian speedwell [17]; [26],5 (Herbicidal rate of 90% or more (almost completely withered))
same,"Herbicidal effect by foliage application, Q: false cleavers",false cleavers; [26],5 (Herbicidal rate of 90% or more (almost completely withered))
same,herbicidal effect on barnyard grass (H),barnyard grass [18],4 (Herbicidal rate of 70% or more and less than 90%)
same,"N: redroot pigweed, herbicidal effect grade",redroot pigweed [19]; [27],5 (Herbicidal rate of 90% or more (almost completely withered))
same,"Herbicidal effect by foliage application, K: Italian ryegrass",Italian ryegrass [20]; [26],5 (Herbicidal rate of 90% or more (almost completely withered))
same,"L: windgrass, herbicidal effect grade",windgrass [21]; [27],5 (Herbicidal rate of 90% or more (almost completely withered))
same,"P: chickweed, herbicidal effect grade",chickweed [22]; [27],4 (Herbicidal rate of 70% or more and less than 90%)
same,"Herbicidal effect by foliage application, O: lambsquarters",lambsquarters [23]; [26],5 (Herbicidal rate of 90% or more (almost completely withered))
same,"Herbicidal effect by foliage application, M: velvetleaf",velvetleaf [24]; [26],5 (Herbicidal rate of 90% or more (almost completely withered))
same,"Herbicidal effect by foliage application, F: southern crabgrass",southern crabgrass [25]; [26],5 (Herbicidal rate of 90% or more (almost completely withered))
